Our source for the IC50 values is patent US20210101928A1 (Sage Therapeutics, Inc., priority 2017, published 2021).

Where only a bound is given, the exact number is not on record here.

In the assay the target is GABAA receptor ([35S]-TBPS binding, rat brain cortical membranes). Briefly: Steroid inhibition of [35S]-TBPS binding. Conditions: Table II-2, 3 nM [35S]-TBPS, in the presence of 5 mM GABA, read-out: TBPS IC50. As to the method:
[^35S]-t-Butylbicyclophosphorothionate (TBPS) binding assays using rat brain cortical membranes in the presence of 5 mM GABA has been described (Gee et al, J. Pharmacol. Exp. Ther. 1987, 241, 346-353; Hawkinson et al, Mol. Pharmacol. 1994, 46, 977-985; Lewin, A. H et al., Mol. Pharmacol. 1989, 35, 189-194).
Briefly, cortices are rapidly removed following decapitation of carbon dioxide-anesthetized Sprague-Dawley rats (200-250 g). The cortices are homogenized in 10 volumes of ice-cold 0.32 M sucrose using a glass/teflon homogenizer and centrifuged at 1500×g for 10 min at 4° C. The resultant supernatants are centrifuged at 10,000×g for 20 min at 4° C. to obtain the P2 pellets. The P2 pellets are resuspended in 200 mM NaCl/50 mM Na—K phosphate pH 7.4 buffer and centrifuged at 10,000×g for 10 min at 4° C. This washing procedure is repeated twice and the pellets are resuspended in 10 volumes of buffer. Aliquots ([…]) of the membrane suspensions are incubated with 3 nM [^35S]-TBPS and […] aliquots of test drug dissolved in dimethyl sulfoxide (DMSO) (final 0.5%) in the presence of 5 mM GABA. The incubation is brought to a final volume of 1.0 mL with buffer. Nonspecific binding is determined in the presence of […] and ranged from 15 to 25%. Following a 90 min incubation at room temp, the assays are terminated by filtration through glass fiber filters (Schleicher and Schuell No. 32) using a cell harvester (Brandel) and rinsed three times with ice-cold buffer. Filter bound radioactivity is measured by liquid scintillation spectrometry. Non-linear curve fitting of the overall data for each drug averaged for each concentration is done using Prism (GraphPad). […] The concentration of test compound producing 50% inhibition (IC50) of specific binding and the maximal extent of inhibition (Imax) are determined for the individual experiments with the same model used for the overall data and then the means±SEM.s of the individual experiments are calculated.
Various compounds are or can be screened to determine their potential as modulators of [^35S]-TBPS binding in vitro. These assays are or can be performed in accordance with the above.

Turning to `CC[C@]12CC[C@@](C)(O)C[C@H]1CC[C@H]1[C@@H]3CC[C@H](C(=O)N4CCCC[C@@H]4C)[C@@]3(C)CC[C@@H]12` [II-20, ((3R,5R,8S,9S,10S,13S,14S,17S)-10-ethyl-3-hydroxy-3,13-dimethylhexadecahydro-1H-cyclopenta[a]phenanthren-ren-17-yl)((S)-2-methylpiperidin-1-yl)methanone], the IC50 was in the range of 10 to 100 nM.
With `CC[C@H]1CCCCN1C(=O)[C@H]1CC[C@H]2[C@@H]3CC[C@@H]4C[C@](C)(O)CC[C@]4(CC)[C@H]3CC[C@]12C` [II-21, ((3R,5R,8S,9S,10S,13S,14S,17S)-10-ethyl-3-hydroxy-3,13-dimethylhexadecahydro-cyclopenta[a]phenanthren-17-yl)((S)-2-ethylpiperidin-1-yl)methanone], the half-maximal inhibitory concentration (IC50) lay in the range of 10 to 100 nM.
The value for `CC[C@@H]1CCCCN1C(=O)[C@H]1CC[C@H]2[C@@H]3CC[C@@H]4C[C@](C)(O)CC[C@]4(CC)[C@H]3CC[C@]12C` [II-21a, ((3R,5R,8S,9S,10S,13S,14S,17S)-10-ethyl-3-hydroxy-3,13-dimethylhexadecahydro-1H-cyclopenta[a]phenanthren-17-yl)((R)-2-ethylpiperidin-1-yl)methanone] was 10 to 100 nM; that for `CC[C@]12CC[C@@](C)(O)C[C@H]1CC[C@H]1[C@@H]3CC[C@H](C(N)=O)[C@@]3(C)CC[C@@H]12` [II-22, (3R,5R,8S,9S,10S,13S,14S,17S)-10-ethyl-3-hydroxy-3,13-dimethylhexadecahydro-1H-cyclopenta[a]phenanthrene-17-carboxamide] was 100 to 1000 nM; that for `CCOC[C@@]1(O)CC[C@@]2(CC)[C@H](CC[C@H]3[C@@H]4CC[C@H](C(=O)Nc5ccc(C#N)cc5C)[C@@]4(C)CC[C@@H]32)C1` [II-43, (3R,5R,8S,9S,10S,13S,14S,17S)-N-(4-cyano-2-methylphenyl)-3-(ethoxymethyl)-10-ethyl-3-hydroxy-13-methylhexadecahydro-1H-cyclopenta[a]phenanthrene-17-carboxamide] was less than 10 nM.
As to `CCOC[C@@]1(O)CC[C@@]2(CC)[C@H](CC[C@H]3[C@@H]4CC[C@H](C(=O)N5CCCC[C@@H]5C)[C@@]4(C)CC[C@@H]32)C1` [II-44, ((3R,5R,85,95,10S,13S,14S,17S)-3-(ethoxymethyl)-10-ethyl-3-hydroxy-13-methylhexadecahydro-1H-cyclopenta[a]phenanthren-17-yl)((S)-2-methylpiperidin-1-yl)methanone], the half-inhibitory concentration (IC50) was 100 to 1000 nM.
The value for `CCOC[C@@]1(O)CC[C@@]2(CC)[C@H](CC[C@H]3[C@@H]4CC[C@H](C(=O)N5CCCC[C@H]5C)[C@@]4(C)CC[C@@H]32)C1` [II-45, ((3R,5R,8S,9S,10S,13S,14S,17S)-3-(ethoxymethyl)-10-ethyl-3-hydroxy-13-methylhexadecahydro-1H-cyclopenta[a]phenanthren-17-yl)((R)-2-methylpiperidin-1-yl)methanone] was 10 to 100 nM; that for `CCOC[C@@]1(O)CC[C@@]2(CC)[C@H](CC[C@H]3[C@@H]4CC[C@H](C(=O)Nc5ccccc5)[C@@]4(C)CC[C@@H]32)C1` [II-46, (3R,5R,85,95,10S,13S,14S,17S)-3-(ethoxymethyl)-10-ethyl-3-hydroxy-13-methyl-N-phenylhexadecahydro-1H-cyclopenta[a]phenanthrene-17-carboxamide] was 10 to 100 nM; that for `CCOC[C@@]1(O)CC[C@@]2(CC)[C@H](CC[C@H]3[C@@H]4CC[C@H](C(=O)Nc5ccccc5C)[C@@]4(C)CC[C@@H]32)C1` [II-47, (3R,5R,8S,9S,10S,13S,14S,17S)-3-(ethoxymethyl)-10-ethyl-3-hydroxy-13-methyl-N-(o-tolyl)hexadecahydro-1H-cyclopenta[a]phenanthrene-17-carboxamide] was less than 10 nM.
To `CCOC[C@@]1(O)CC[C@@]2(CC)[C@H](CC[C@H]3[C@@H]4CC[C@H](C(N)=O)[C@@]4(C)CC[C@@H]32)C1` [II-48, (3R,5R,8S,9S,10S,13S,14S,17S)-3-(ethoxymethyl)-10-ethyl-3-hydroxy-13-methylhexadecahydro-1H-cyclopenta[a]phenanthrene-17-carboxamide] belongs 100 to 1000 nM; to `CCOC[C@@]1(O)CC[C@@]2(CC)[C@H](CC[C@H]3[C@@H]4CC[C@H](C(=O)N5CCCC[C@@H]5c5ccc(F)cc5)[C@@]4(C)CC[C@@H]32)C1` [II-50, ((3R,5R,8S,9S,10S,13S,14S,17S)-3-(ethoxymethyl)-10-ethyl-3-hydroxy-13-methylhexadecahydro-1H-cyclopenta[a]phenanthren-17-yl)((R)-2-(4-fluorophenyl)piperidin-1-yl)methanone], 100 to 1000 nM; to `CCOC[C@@]1(O)CC[C@@]2(CC)[C@H](CC[C@H]3[C@@H]4CC[C@H](C(=O)N5CCCC[C@H]5c5ccc(F)cc5)[C@@]4(C)CC[C@@H]32)C1` [II-51, ((3R,5R,8S,9S,10S,13S,14S,17S)-3-(ethoxymethyl)-10-ethyl-3-hydroxy-13-methylhexadecahydro-1H-cyclopenta[a]phenanthren-17-yl)((S)-2-(4-fluorophenyl)piperidine-1-yl)methanone], 10 to 100 nM.
To `CCOC[C@@]1(O)CC[C@@]2(CC)[C@@H](CC[C@H]3[C@@H]4CC[C@H](C(=O)Nc5ccc(C#N)cc5C)[C@@]4(C)CC[C@@H]32)C1` [II-63] belongs 10 to 100 nM; to `CCOC[C@@]1(O)CC[C@@]2(CC)[C@H](CC[C@H]3[C@@H]4CC[C@H](C(=O)Cn5nccn5)[C@@]4(C)CC[C@@H]32)C1` [II-75, 1-((3R,5R,8S,9S,10S,13S,14S,17S)-3-(ethoxymethyl)-10-ethyl-3-hydroxy-13-methylhexadecahydro-1H-cyclopenta[a]phenanthren-17-yl)-2-(2H-1,2,3-triazole-2-yl)ethan-1-one], 10 to 100 nM; to `CCOC[C@@]1(O)CC[C@@]2(CC)[C@H](CC[C@H]3[C@@H]4CC[C@H](C(=O)Cn5ccnn5)[C@@]4(C)CC[C@@H]32)C1` [II-76, 1-((3R,5R,8S,9S,10S,13S,14S,17S)-3-(ethoxymethyl)-10-ethyl-3-hydroxy-13-methylhexadecahydro-1H-cyclopenta[a]phenanthren-17-yl)-2-(1H-1,2,3-triazol-1-yl)ethan-1-one], 10 to 100 nM.
Turning to `CCOC[C@@]1(O)CC[C@@]2(CC)[C@@H](CC[C@H]3[C@@H]4CC[C@H](C(=O)Cn5nnnc5C)[C@@]4(C)CC[C@@H]32)C1` [II-78, 1-((3R,5S,8S,9S,10S,13S,14S,17S)-3-(ethoxymethyl)-10-ethyl-3-hydroxy-13-methylhexadecahydro-1H-cyclopenta[a]phenanthren-17-yl)-2-(5-methyl-1H-tetrazol-1-yl)ethan-1-one], the IC50 is 100 to 1000 nM.
Take `CCOC[C@@]1(O)CC[C@@]2(CC)[C@H](CC[C@H]3[C@@H]4CC[C@H](C(=O)Cn5ccc(C#N)n5)[C@@]4(C)CC[C@@H]32)C1` [II-79, 1-(2-((3R,5R,8S,9S,10S,13S,14S,17S)-3-(ethoxymethyl)-10-ethyl-3-hydroxy-13-methylhexadecahydro-1H-cyclopenta[a]phenanthren-17-yl)-2-oxoethyl)-1H-pyrazole-3-carbonitrile]: the IC50 is less than 10 nM.
To `C=C[C@]12CC[C@@](C)(O)C[C@@H]1CC[C@H]1[C@@H]3CC[C@H](C(C)=O)[C@@]3(C)CC[C@@H]12` [II-A4, 1((3R,5S,8S,9S,10R,13S,14S,17S)-3-hydroxy-3,13-dimethyl-10-vinylhexadecahydro-1H-cyclopenta[a]phenanthren-17-yl)ethan-1-one] belongs 10 to 100 nM.
To `CC[C@]12CC[C@@](C)(O)C[C@@H]1CC[C@H]1[C@@H]3CC[C@H](C(C)=O)[C@@]3(C)CC[C@@H]12` [II-A5, 1-((3R,5S,8S,9S,10S,13S,14S,17S)-10-ethyl-3-hydroxy-3,13-dimethylhexadecahydro-1H-cyclopenta [a]phenanthren-17-yl)ethan-1-one] belongs 10 to 100 nM; to `CC[C@]12CC[C@@](C)(O)C[C@@H]1CC[C@H]1[C@@H]3CC[C@H](C(=O)Cn4cccn4)[C@@]3(C)CC[C@@H]12` [II-A7, 1-((3R,5S,8S,9S,10S,13S,14S,17S)-10-ethyl-3-hydroxy-3,13-dimethylhexadecahydro-1H-cyclopenta [a]phenanthren-17-yl)-2-(1H-pyrazol-1-yl)ethan-1-one], 10 to 100 nM.
The value for `CC[C@]12CC[C@@](C)(O)C[C@@H]1CC[C@H]1[C@@H]3CC[C@H](C(=O)Cn4ccnn4)[C@@]3(C)CC[C@@H]12` [II-A8] was less than 10 nM.
